Experimental findings from ChEMBL document CHEMBL3046014, “Quinolone derivatives as antitubercular drugs” (Med Chem Res, 2013) are described below.

As usually defined, the MIC50 is the lowest concentration that inhibits either 50% of growth or 50% of the strains tested, depending on the study. Lower therefore signals higher susceptibility. The IC50 is the concentration at which inhibition is half-maximal. Lower therefore signals higher potency. Usually MIC stands for the lowest concentration found to suppress growth. By MIC90 is commonly meant an inhibitory concentration at the 90% level, which refers to growth in some studies and to a panel of isolates in others. In general, bioavailability refers to the share of a dose that reaches the circulation, judged against a reference dose that is usually intravenous. A lower bioavailability goes with poor availability.

One series deals with Mycobacterium avium. Description: Antitubercular activity against Mycobacterium avium by MAC assay. It is filed as functional.
Series [1] has as its system Mycobacterium tuberculosis. The experiment in a line: Antitubercular activity against Mycobacterium tuberculosis. It is filed as functional, organism-based.
Series [2] deals with Mycobacterium tuberculosis. The experiment in a line: Antitubercular activity against Mycobacterium tuberculosis H37Rv. It is filed as functional.
Series [3] can be described thus: Oral bioavailability in healthy Homo sapiens (human). It is filed as ADME, organism-based. The conditions noted are these: in vivo.
The species entered for another series is Homo sapiens. The experiment in a line: Toxicity in healthy Homo sapiens (human). Particulars: in vivo. Format: organism-based.
Series [4] is described as follows: Elimination half life in healthy Homo sapiens (human). It is filed as ADME, organism-based. The conditions noted are these: in vivo, read-out: beta t1/2 (converted).
A short description of series [5]: Drug uptake in Mus musculus (mouse) serum at 100 mg/kg, po at 0.25 hr. It is filed as ADME, organism-based. On the set-up: dose 100 mg/kg, route oral. The conditions noted are these: read-out: Drug uptake.
The subject of series [6] is Mycobacterium tuberculosis. The experiment in a line: Antitubercular activity against Mycobacterium tuberculosis CSU93.

Converted amounts (≈) assume the structure as drawn.

`OC(C1=CCC=CN1)c1cc(C2C3CC4CC(C3)CC2C4)nc2c1ccc1ccccc12` (stereo not drawn) yielded an MIC50 against Mycobacterium avium of 2 µg/mL (≈ 4.73 µM).

In series [1], `C[C@H]1CN(c2c(F)cc3c(=O)c(C(=O)O)cn(C4CC4)c3c2OC(F)(F)F)CCN1.Cl` came in with an IC50 of 0.25 µg/mL.

In turn, `OC(C1=CCC=CN1)c1cc(-c2ccc(Cl)cc2)nc2c1ccc1ccccc12` (stereo not drawn) yielded an MIC50 with Mycobacterium avium of 1 µg/mL (≈ 2.51 µM).

`CC1COc2c(N3CCN(C)CC3)c(F)cc3c(=O)c(C(=O)O)cn1c23` (racemic) [OFLOXACIN] displayed an IC50 in series [1] of 0.5 µg/mL (≈ 1.38 µM).

`CNC1CCCN(c2c(F)cc3c(=O)c(C(=O)O)cn(C4CC4)c3c2OC)C1` (stereo not drawn) [BALOFLOXACIN]: in series [1], half-maximal inhibition (IC50) required 0.5 µg/mL (≈ 1.28 µM).

In series [2], `COc1nc2ccc(Br)cc2cc1[C@@H](c1ccccc1)[C@@](O)(CCN(C)C)c1cccc2ccccc12` [BEDAQUILINE] showed an MIC of less than 0.5 µg/mL.

The molecule `O=C(O)c1cn(C2CC2)c2cc(N3CCNCC3)c(F)cc2c1=O` [CIPROFLOXACIN] displayed an IC50 in series [1] of 0.5 µg/mL (≈ 1.51 µM).

In series [1], `C[C@H]1NCc2cc(-c3ccc4c(=O)c(C(=O)O)cn(C5CC5)c4c3OC(F)F)ccc21` [GARENOXACIN] had an MIC90 of 0.0625 µg/mL (≈ 0.147 µM).

Turning to `CO/N=C1\CN(c2nc3c(cc2F)c(=O)c(C(=O)O)cn3C2CC2)CC1CN` (stereo not drawn) [GEMIFLOXACIN], in series [1], the MIC90 turned out to be 8 µg/mL (≈ 20.5 µM). Further, the bioavailability in series [3] came to 70%. In the series filed under Homo sapiens, the MNTD was found to be 800 mg. Moreover, in series [4], the half-life is 7.4 h.

In series [1], `Cc1c(F)c(N2CCNC(C)C2)cc2c1c(=O)c(C(=O)O)cn2C1CC1` (stereo not drawn) [GREPAFLOXACIN] returned an MIC90 of 1 µg/mL (≈ 2.78 µM).

`C[C@H]1COc2c(N3CCN(C)CC3)c(F)cc3c(=O)c(C(=O)O)cn1c23.C[C@H]1COc2c(N3CCN(C)CC3)c(F)cc3c(=O)c(C(=O)O)cn1c23.O` [LEVOFLOXACIN]: in series [1], the MIC90 came to 1 µg/mL.

Take `OC(c1cc(C(F)(F)F)nc2c(C(F)(F)F)cccc12)C1CCCCN1` (stereo not drawn) [MEFLOQUINE]: in the series on Mycobacterium avium, the MIC50 stood at 16 µg/mL (≈ 42.3 µM).

With `COc1c(N2C[C@@H]3CCCN[C@@H]3C2)c(F)cc2c(=O)c(C(=O)O)cn(C3CC3)c12` [MOXIFLOXACIN], the concentration at 0.25 h in series [5] was found to be 7800 ng/mL. In addition, 0.25 µg/mL (≈ 0.623 µM) was the least that counted as inhibitory in series [6] (MIC).

`CCn1cc(C(=O)O)c(=O)c2cc(F)c(N3CCNCC3)cc21` [NORFLOXACIN]: in series [1], inhibition was half-maximal at 8 µg/mL (≈ 25.1 µM) (IC50).

In turn, `N[C@@H]1CN(c2c(F)cc3c(=O)c(C(=O)O)cn([C@@H]4C[C@@H]4F)c3c2Cl)CC12CC2` [SITAFLOXACIN ANHYDROUS] showed an MIC90 in series [1] of 0.2 µg/mL (≈ 0.488 µM). Also, the bioavailability in series [3] is not below 70%. Moreover, the half-life in series [4] was 4.4 h.

For `C[C@@H]1CN(c2c(F)c(N)c3c(=O)c(C(=O)O)cn(C4CC4)c3c2F)C[C@H](C)N1` [SPARFLOXACIN], the concentration for half-maximal inhibition (IC50) in series [1] worked out at 0.25 µg/mL (≈ 0.637 µM).

Regarding `N[C@@H]1[C@H]2CN(c3nc4c(cc3F)c(=O)c(C(=O)O)cn4-c3ccc(F)cc3F)C[C@@H]12` [TROVAFLOXACIN], in series [1], the MIC90 came out at 1 µg/mL (≈ 2.4 µM).
